Measured values: the supplement of paper PMC10307832

Key:
Assay in all cases: relative viability (nuclei count vs DMSO), 5 days (fraction); higher = more cells survive
[1] = compound: C[C@@H](N)c1ccc(C(=O)Nc2ccnc3[nH]ccc23)cc1 + C[C@]1(O)C[C@@H](c2nc(-c3ccc4ccc(-c5ccccc5)nc4c3)c3c(N)nccn32)C1 [Linsitinib] (partner 1 µM)
Method in brief: (§1)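 Each reported value is a median over duplicate plates. It expresses relative viability: treated-well nuclei count divided by vehicle-well nuclei count. Lung cancer cell lines in 1536-well plates were dosed by pin tool a day after seeding, alone with one drug or with a fixed anchor-drug dose plus five library-drug doses (not always all listed) in √10 steps, and nuclei were counted after 5 days.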

[2] = compound: C[C@@H](N)c1ccc(C(=O)Nc2ccnc3[nH]ccc23)cc1 + O=C(CCCCCCC(=O)Nc1ccccc1)NO [Vorinostat] (partner 1 µM)
Method in brief: as §1

[3] = compound: C[C@@H](N)c1ccc(C(=O)Nc2ccnc3[nH]ccc23)cc1 + CC(=O)c1c(C)c2cnc(Nc3ccc(N4CCNCC4)cn3)nc2n(C2CCCC2)c1=O [Palbociclib] (partner 0.5 µM)
Method in brief: as §1

Tanzisertib + Linsitinib = compound: O[C@H]1CC[C@H](Nc2ncc3nc(Nc4c(F)cc(F)cc4F)n([C@H]4CCOC4)c3n2)CC1 [Tanzisertib] + C[C@]1(O)C[C@@H](c2nc(-c3ccc4ccc(-c5ccccc5)nc4c3)c3c(N)nccn32)C1 [Linsitinib] (partner 1 µM)
Method in brief: as §1

Cell Line	relative viability ([1]; first compound 0.04 µM)	relative viability ([1]; first compound 0.1265 µM)	relative viability ([1]; first compound 0.4 µM)	relative viability ([1]; first compound 1.265 µM)	relative viability ([1]; first compound 4 µM)	relative viability ([2]; first compound 0.04 µM)	relative viability ([2]; first compound 0.1265 µM)	relative viability ([2]; first compound 0.4 µM)	relative viability ([2]; first compound 1.265 µM)	relative viability ([2]; first compound 4 µM)	relative viability ([3]; first compound 0.04 µM)	relative viability ([3]; first compound 0.1265 µM)	relative viability ([3]; first compound 0.4 µM)	relative viability ([3]; first compound 1.265 µM)	relative viability ([3]; first compound 4 µM)	relative viability (Tanzisertib + Linsitinib; first compound 0.08 µM)	relative viability (Tanzisertib + Linsitinib; first compound 0.253 µM)	relative viability (Tanzisertib + Linsitinib; first compound 0.8 µM)	relative viability (Tanzisertib + Linsitinib; first compound 2.53 µM)	relative viability (Tanzisertib + Linsitinib; first compound 8 µM)
NCI-H1437	1.14	1.04	1.07	1.14	0.897	0.882	0.874	0.991	1.02	1.03	0.335	0.315	0.386	0.369	0.482	1.14	0.981	1.11	1.13	0.971
SK-MES-1	1.06	0.996	0.976	0.768	0.815	1.04	1.05	1.11	1.2	1.17	0.312	0.365	0.306	0.337	0.271	1.08	1.06	1.06	1.12	0.832
NCI-H2405	–	1.07	0.744	0.599	0.45	–	1.09	1.02	0.699	0.404	–	0.505	0.494	0.3	0.233	0.954	0.881	0.968	0.904	0.702
NCI-H2023	0.734	0.691	0.724	0.798	0.663	0.645	0.621	0.863	–	0.819	0.371	0.409	0.424	–	0.35	0.702	0.589	0.759	0.621	0.56
NCI-H838	0.945	0.905	0.796	0.533	0.367	0.763	0.657	0.583	0.41	0.307	0.183	0.221	0.229	0.192	0.183	1.02	0.997	1	1.01	0.919
NCI-H661	0.558	0.582	0.623	0.441	0.508	0.859	0.802	0.845	0.826	0.886	0.388	0.464	0.41	0.35	0.362	0.657	0.495	0.619	0.477	0.599
NCI-H1734	0.901	0.905	0.805	–	0.708	0.701	0.791	0.823	0.576	0.806	0.316	0.355	0.325	0.338	0.277	1.09	0.902	0.861	0.871	0.87
NCI-H1944	1.28	1.16	1.17	–	0.835	0.56	0.553	0.616	0.491	0.582	0.37	0.334	0.351	0.387	0.266	1.25	1.18	1.12	1.12	0.878
LK-2	0.822	0.542	0.809	0.554	0.721	0.198	0.275	0.222	0.17	0.302	0.826	0.7	0.655	0.485	0.912	0.522	0.519	0.724	0.624	0.637
HCC-15	0.951	0.888	0.845	–	0.797	0.844	0.817	0.933	0.997	0.868	0.705	0.704	0.704	0.694	0.674	1.05	0.833	0.896	0.786	0.924
NCI-H727	0.135	0.559	0.493	0.736	0.785	1.6	1.22	1.52	1.57	1.49	0.667	0.714	0.746	0.748	0.798	0.358	0.32	0.322	0.38	0.249
HOP-62	0.972	0.983	0.88	1.03	0.954	0.715	0.541	0.602	0.179	0.555	0.454	0.463	0.449	0.411	0.397	0.924	1.14	1.13	1.04	0.918
NCI-H3122	1.03	0.985	0.964	1.02	1.03	1.04	1.04	1.02	1.03	1.29	0.221	0.188	0.23	0.243	0.221	1.03	1.05	1.09	0.898	1.03
NCI-H1395	1.05	1.14	1.24	–	0.878	0.622	0.772	0.704	–	0.796	0.583	0.639	0.597	–	0.577	1.32	0.956	1.08	1.04	1.05
NCI-H647	1.14	1.18	1.22	1.28	0.976	0.472	0.623	0.551	0.613	0.463	0.472	0.496	0.417	0.308	0.333	1.17	1.29	1.12	1.24	1.3
NCI-H650	0.723	0.751	0.841	–	0.658	–	0.507	0.325	–	0.381	–	0.341	0.311	–	0.327	0.949	0.918	0.92	1.2	0.366
EKVX	1.12	1.13	1.2	1.19	1.01	0.672	0.672	0.83	0.44	0.517	0.413	0.415	0.432	0.38	0.28	0.953	1.02	1.04	1.02	0.822

Cell Line	relative viability ([1]; first compound 0.04 µM)	relative viability ([1]; first compound 0.1265 µM)	relative viability ([1]; first compound 0.4 µM)	relative viability ([1]; first compound 1.265 µM)	relative viability ([1]; first compound 4 µM)	relative viability ([2]; first compound 0.04 µM)	relative viability ([2]; first compound 0.1265 µM)	relative viability ([2]; first compound 0.4 µM)	relative viability ([2]; first compound 1.265 µM)	relative viability ([2]; first compound 4 µM)	relative viability ([3]; first compound 0.04 µM)	relative viability ([3]; first compound 0.1265 µM)	relative viability ([3]; first compound 0.4 µM)	relative viability ([3]; first compound 1.265 µM)	relative viability ([3]; first compound 4 µM)	relative viability (Tanzisertib + Linsitinib; first compound 0.08 µM)	relative viability (Tanzisertib + Linsitinib; first compound 0.253 µM)	relative viability (Tanzisertib + Linsitinib; first compound 0.8 µM)	relative viability (Tanzisertib + Linsitinib; first compound 2.53 µM)	relative viability (Tanzisertib + Linsitinib; first compound 8 µM)
NCI-H460	0.857	0.729	0.823	0.954	0.599	0.86	0.73	0.771	0.949	0.702	0.076	0.183	0.343	0.154	0.224	0.982	0.706	0.738	0.783	0.525
LCLC-97TM1	0.192	0.2	0.202	0.29	0.349	0.835	0.374	0.69	0.0878	0.779	0.276	0.217	0.341	0.257	0.309	–	0.18	0.192	0.186	0.2
COR-L23	0.968	0.925	0.874	0.744	0.442	0.51	0.486	0.479	0.417	0.212	0.231	0.357	0.305	0.235	0.215	1.09	0.874	0.896	1.02	0.934
NCI-H1355	0.853	0.723	0.833	–	0.771	0.663	0.626	0.686	0.583	0.57	0.441	0.422	0.403	0.427	0.393	0.785	0.826	0.923	0.858	0.777
NCI-H1666	0.849	1.04	1.01	1.12	0.966	1.1	1.05	1.22	1.5	1.31	0.661	0.63	0.636	0.616	0.668	0.834	0.862	0.832	0.777	0.933
EPLC-272H	1.34	1.24	1.28	–	1.13	0.548	0.567	0.497	0.352	0.351	0.39	0.356	0.384	–	0.427	1.46	1.18	1.19	1.12	1.08
NCI-H1651	1.12	0.932	0.987	1.13	0.994	0.603	0.526	0.647	0.586	0.561	0.509	0.567	0.554	0.601	0.567	0.956	0.837	1.05	1.05	0.854
HCC-44	0.703	0.682	0.708	0.713	0.532	1.16	1.07	1.02	1.16	0.82	0.929	0.96	1.02	1.15	1.02	0.683	0.74	0.673	0.602	0.724
SW 1573	0.763	0.873	0.82	0.861	0.622	0.652	0.669	0.638	0.428	0.592	0.491	0.416	0.385	0.356	0.341	0.968	0.85	0.703	0.753	0.672
PC-3 [JPC-3]	0.963	1.05	0.978	1	0.879	0.803	0.77	0.85	0.836	0.725	0.544	0.516	0.53	0.551	0.575	1.05	0.957	0.963	0.963	0.899
LOU-NH91	0.831	0.979	0.778	0.726	0.702	0.754	0.791	0.885	0.625	0.725	0.581	0.527	0.533	0.536	0.448	0.996	0.906	0.996	0.842	0.627
PC-14	0.927	0.907	0.924	0.819	0.725	0.714	0.878	0.851	–	0.683	0.552	0.537	0.483	–	0.367	1	0.987	0.885	0.942	0.572
NCI-H2087	1	0.823	0.916	0.824	0.478	0.659	0.58	0.466	0.593	0.549	0.24	0.263	0.299	0.254	0.28	1.12	1.07	0.98	1.24	0.957
LU99A	0.607	0.569	0.586	0.617	0.509	–	0.529	0.503	0.418	0.366	–	0.372	0.387	0.343	0.275	0.557	0.481	0.505	0.523	0.537
BEN	0.981	0.86	0.991	1.02	0.636	0.592	0.573	0.589	0.585	0.587	0.483	0.425	0.438	0.587	0.449	0.875	0.916	1.11	0.984	0.904
SK-LU-1	1.09	1.1	1.19	0.956	0.637	0.776	0.767	0.696	0.671	0.522	0.42	0.44	0.465	0.273	0.338	1.16	1.15	1.14	1.17	1.23
